Assay results reported in article PMC9780937 (Molecules, 2022).
Entries after “also recorded” stand apart in the source; their conditions may differ.

What was measured:
NPFF2R = tested on: NPFF2R; set-up: method as in suppl. ref 1; conditions: [35S]GTPγS binding assay; ref suppl. ref 1; cited from earlier work
mice [1] = conditions: acute s.c., at effective antinociceptive doses (7.4 µmol/kg), ref 19 (suppl. ref 1); cited from earlier work
mice [2] = assay: Acetic acid-induced writhing assay (visceral pain); assay type: in vivo, mouse (male CD1); conditions: s.c.
mice [3] = conditions: chronic s.c., at effective antinociceptive doses (7.4 µmol/kg), ref 19 (suppl. ref 1); cited from earlier work
mice [4] = tested on: mice; set-up: method as in 2 sources, ref 19 (suppl. ref 1) ||| ref 19 = [19]; PMID 29708942; doi:10.1097/j.pain.0000000000001262; 19. Drieu La Rochelle A. Guillemyn K. Dumitrascuta M. Martin C. Utard V. Quillet R. Schneider S. Daubeuf F. Willemse T. Mampuys P. A bifunctional-biased mu-opioid agonist-neuropeptide FF receptor anta; conditions: s.c., cited from earlier work
MOR [5] = tested on: MOR; set-up: method as in 3 sources, one per row (each row's own in cited_ref): ref 19 = [19]; PMID 29708942; doi:10.1097/j.pain.0000000000001262; 19. Drieu La Rochelle A. Guillemyn K. Dumitrascuta M. Martin C. Utard V. Quillet R. Schneider S. Daubeuf F. Willemse T. Mampuys P. A bifunctional-biased mu-opioid agonist-neuropeptide FF receptor anta ||| ref suppl. ref 1 ||| ref 19 (suppl. ref 1); conditions: cited from earlier work
mice [6] = tested on: mice; set-up: method as in earlier work; conditions: s.c., ref 19 (suppl. ref 1); cited from earlier work
mice [7] = conditions: chronic s.c., at effective antinociceptive doses (7.4 µmol/kg), ref 19 (suppl. ref 1); cited from earlier work; remark: listed apart in the source
NOP receptor [8] = tested on: NOP receptor; set-up: method as in 2 sources, one per row (each row's own in cited_ref): ref 19 = [19]; PMID 29708942; doi:10.1097/j.pain.0000000000001262; 19. Drieu La Rochelle A. Guillemyn K. Dumitrascuta M. Martin C. Utard V. Quillet R. Schneider S. Daubeuf F. Willemse T. Mampuys P. A bifunctional-biased mu-opioid agonist-neuropeptide FF receptor anta ||| ref suppl. ref 1; conditions: cited from earlier work
mice [9] = conditions: chronic s.c., at effective antinociceptive doses (7.4 µmol/kg), ref 19 (suppl. ref 1); cited from earlier work; remark: listed apart in the source
mice [10] = assay: Conditioned place preference (CPP) test, rewarding effects; assay type: in vivo, mouse (male CD1); conditions: 7.4 µmol/kg s.c. daily for 4 days, vs saline; n = 8 mice per group
MOR [11] = biological target: MOR; set-up: method as in suppl. ref 1; conditions: radioligand competitive binding; ref suppl. ref 1; read-out: Binding affinity Ki, MOR; cited from earlier work
human MOR [12] = tested on: human MOR; set-up: method as in 2 sources, one per row (each row's own in cited_ref): ref 19 = [19]; PMID 29708942; doi:10.1097/j.pain.0000000000001262; 19. Drieu La Rochelle A. Guillemyn K. Dumitrascuta M. Martin C. Utard V. Quillet R. Schneider S. Daubeuf F. Willemse T. Mampuys P. A bifunctional-biased mu-opioid agonist-neuropeptide FF receptor anta ||| ref 19 (suppl. ref 1); conditions: cited from earlier work
KOR = tested on: KOR; set-up: method as in 2 sources, one per row (each row's own in cited_ref): ref 19 = [19]; PMID 29708942; doi:10.1097/j.pain.0000000000001262; 19. Drieu La Rochelle A. Guillemyn K. Dumitrascuta M. Martin C. Utard V. Quillet R. Schneider S. Daubeuf F. Willemse T. Mampuys P. A bifunctional-biased mu-opioid agonist-neuropeptide FF receptor anta ||| ref suppl. ref 1; conditions: cited from earlier work
mice [13] = tested on: mice; set-up: method as in earlier work; conditions: s.c., 7.4 µmol/kg where stated (mechanical and thermal stimulation), ref 19 (suppl. ref 1); cited from earlier work
NPFF1R = tested on: NPFF1R; set-up: method as in suppl. ref 1; conditions: [35S]GTPγS binding assay; ref suppl. ref 1; cited from earlier work
human MOR [14] = assay: Comparison of G protein activation ([35S]GTPγS binding) and β-arrestin2 recruitment (PathHunter)
mice [15] = tested on: mice; set-up: method as in suppl. ref 1; conditions: acute s.c., at effective antinociceptive doses, ref suppl. ref 1; cited from earlier work
NOP receptor [16] = biological target: NOP receptor; set-up: method as in suppl. ref 1; conditions: radioligand competitive binding; ref suppl. ref 1; read-out: Binding affinity Ki, NOP receptor; cited from earlier work
[17] = tested on: neuropeptide FF receptor (NPFFR); set-up: method as in PMID 29708942; conditions: in vitro; cited from earlier work
DOR [18] = tested on: DOR; set-up: method as in 2 sources, one per row (each row's own in cited_ref): ref 19 = [19]; PMID 29708942; doi:10.1097/j.pain.0000000000001262; 19. Drieu La Rochelle A. Guillemyn K. Dumitrascuta M. Martin C. Utard V. Quillet R. Schneider S. Daubeuf F. Willemse T. Mampuys P. A bifunctional-biased mu-opioid agonist-neuropeptide FF receptor anta ||| ref suppl. ref 1; conditions: cited from earlier work
human MOR [19] = biological target: T1, human MOR (Homo sapiens, UniProt P35372); assay: cell-based; assay type: cell-based
mice [20] = tested on: mice; set-up: method as in suppl. ref 1; conditions: acute s.c., at effective antinociceptive doses, ref suppl. ref 1; cited from earlier work; remark: listed apart in the source
DOR [21] = tested on: DOR; set-up: method as in 2 sources, one per row (each row's own in cited_ref): ref 19 = [19]; PMID 29708942; doi:10.1097/j.pain.0000000000001262; 19. Drieu La Rochelle A. Guillemyn K. Dumitrascuta M. Martin C. Utard V. Quillet R. Schneider S. Daubeuf F. Willemse T. Mampuys P. A bifunctional-biased mu-opioid agonist-neuropeptide FF receptor anta ||| ref suppl. ref 1; conditions: cited from earlier work; remark: listed apart in the source
mice [22] = assay: Open-field test, spontaneous locomotor activity; assay type: in vivo, mouse (male CD1); conditions: 7.4 µmol/kg s.c. daily for 4 days, vs saline; 30 min recording; n = 8 mice per group
human MOR [23] = biological target: T1, human MOR; assay: biochemical; assay type: biochemical
mice [24] = tested on: mice; set-up: method as in PMID 30571123; conditions: s.c.; cited from earlier work
mice [25] = conditions: 15.5 µmol/kg s.c. chronic, day 1 to day 4; cited from earlier work
[26] = in vivo; cited from earlier work
mice [27] = conditions: cited from earlier work
Description: This is particularly important given the current rise in the abuse of prescription opioids, commonly MOR agonists. The MOR is established to play a major role in analgesia, but also on the undesirable opioid side effect of reward, with deletion of the gene encoding MOR (Oprm1) completely blocking opioid analgesia and reward behavior in rodents. To this aim, we used the conditioned place preference (CPP) paradigm, as described previously. The CPP is a w ...

[28] = biological target: human mu-opioid receptor (MOR), stably expressed in CHO cells (CHO-hMOR), in membranes (human) (UniProt P35372)
[29] = relative to maximal effect of DAMGO (100%), HEK293 cells, ref 19 (suppl. ref 1)
[30] = cAMP accumulation assay, ref suppl. ref 1

T1 sequence (P35372 whole entry): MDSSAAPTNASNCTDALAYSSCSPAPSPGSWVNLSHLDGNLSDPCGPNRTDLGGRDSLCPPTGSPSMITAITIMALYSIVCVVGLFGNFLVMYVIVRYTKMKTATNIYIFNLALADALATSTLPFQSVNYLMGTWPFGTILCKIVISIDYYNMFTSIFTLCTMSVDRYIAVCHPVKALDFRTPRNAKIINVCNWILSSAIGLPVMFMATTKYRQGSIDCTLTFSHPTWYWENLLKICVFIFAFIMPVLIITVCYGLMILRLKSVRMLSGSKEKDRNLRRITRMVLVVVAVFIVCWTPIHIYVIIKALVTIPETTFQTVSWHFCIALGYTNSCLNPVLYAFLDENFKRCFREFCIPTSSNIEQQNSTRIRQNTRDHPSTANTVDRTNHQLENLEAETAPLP
Sequence of human mu-opioid receptor (MOR), stably expressed in CHO cells (CHO-hMOR), in membranes (human) (P35372 whole entry): as above

Cc1cc(O)cc(C)c1C[C@H](N)C(=O)N[C@H](CCCNC(=N)N)C(=O)NC1Cc2ccccc2CN(CCC(=O)NC(CCCN2CCC(Cc3ccccc3)CC2)C(=O)N[C@@H](Cc2ccccc2)C(N)=O)C1=O (stereo partly drawn) [KGFF09, H-Dmt-DArg-Aba-βAla-Bpa-Phe-NH2]
pA2, NPFF2R (NPFF2R): 7.77
Respiratory depression (mice [1]): less acute side effects; also recorded: reduced opioid-induced side effects
Antinociceptive ED50, writhing assay (mice [2]; 30 min after administration, Litchfield and Wilcoxon): 0.079 µmol/kg
Effect in writhing assay (mice [2]; mice): yes and dose-dependent inhibition of the writhing behavior
Potency vs morphine, writhing assay (mice [2]; ratio of ED50 (morphine ED50 from ref 24)): 17 fold
Withdrawal syndrome (mice [3]): no and reduced side effects and reduced opioid-induced side effects
Antinociception, radiant tail-flick test (mice [4]; ref 19 (suppl. ref 1)): yes and potent and long-lasting antinociceptive activity and very effective with long-lasting antinociceptive effects
ED90, tail-flick test (mice [4]): 7.4 µmol/kg
Potency vs morphine, tail-flick test (mice [4]): three-fold more potent than morphine
Relation of 7.4 µmol/kg to tail-flick ED50 (mice [4]): three-fold antinociceptive ED50 dose
EC50 (MOR [5]; HEK293 cells expressing eYFP-tagged β-arrestin-2, MOR-Rluc8, ref 19 (suppl. ref 1), read-out: EC50, BRET β-arrestin2 recruitment (Table S3)): 56.4 nM
BRET β-arrestin2 recruitment and bias (MOR [5]; HEK293 cells, MOR): reduced efficacy (acting as a partial agonist) in inducing β-arrestin2 recruitment
Signaling bias at MOR in vitro, earlier study (MOR [5]): G protein-biased MOR agonist
Emax, BRET β-arrestin2 recruitment (Table S3) (MOR [5]; [29]): 42%
Antinociception, warm-water tail-withdrawal test (mice [6]): yes and potent and long-lasting antinociceptive activity and very effective with long-lasting antinociceptive effects
Opioid-induced hyperalgesia (mice [7]): no and reduced side effects and reduced opioid-induced side effects
Emax, G protein activation, NOP receptor (NOP receptor [8]; [30]): 7%
EC50 (NOP receptor [8]; cAMP accumulation assay, ref suppl. ref 1, read-out: EC50, G protein activation, NOP receptor): > 10000 nM
Functional profile at NOP receptor (NOP receptor [8]): antagonist profile
Antinociceptive/analgesic tolerance (mice [9]): no and reduced side effects and reduced opioid-induced side effects
Rewarding effect, CPP (mice [10]): no and no significant CPP response compared to saline-treated animals
Ki (MOR [11]): 2.43 nM
EC50 (human MOR [12]; HEK293 cells co-expressing cAMP Glosensor-20F and human MOR, ref 19 (suppl. ref 1), read-out: EC50, cAMP accumulation, MOR): 18.2 nM
Functional profile in cAMP accumulation, MOR (human MOR [12]; HEK293 cells, human MOR): potent and full MOR agonist
Emax, cAMP accumulation, MOR (human MOR [12]; [29]): 85%
Emax, G protein activation, KOR (KOR; [30]): 15%
EC50 (KOR; cAMP accumulation assay, ref suppl. ref 1, read-out: EC50, G protein activation, KOR): > 10000 nM
Functional profile at KOR (KOR): antagonist profile
Antihyperalgesic effect, CFA-induced hyperalgesia (mice [13]): yes and potent and long-lasting antinociceptive activity and completely reduced pain behavior of mice to mechanical and thermal stimulation and very effective with long-lasting antinociceptive effects
pA2, NPFF1R (NPFF1R): 7.25
Decrease in potency, β-arrestin2 recruitment vs G protein activation (human MOR [14]; PathHunter vs [35S]GTPγS binding, human MOR): 153 fold
Signaling bias at MOR (human MOR [14]; [35S]GTPγS binding vs PathHunter β-arrestin2): G protein-biased MOR agonist in vitro
Constipation (mice [15]): yes
Ki (NOP receptor [16]): 209 nM
Functional profile at NPFFR [17]: NPFFR antagonist
Binding affinity lower at DOR than at MOR (DOR [18]; DOR vs MOR): 77 fold
Ki (DOR [18]; radioligand competitive binding, ref suppl. ref 1, read-out: Binding affinity Ki, DOR): 186 nM
β-arrestin2 recruitment (human MOR [19]): failed to robustly engage β-arrestin2 recruitment
Emax (human MOR [19]; read-out: Emax, β-arrestin2 recruitment (PathHunter)): 57 ± 3%
Sedation/motor impairment (mice [20]): yes
Emax, G protein activation, DOR (DOR [21]; [30]): 90%
Functional profile at DOR (DOR [21]): agonist activity at the delta opioid receptor (DOR)
Spontaneous locomotor activity, distance traveled (mice [22]): no and no impairment in the locomotor activity
Functional profile at MOR in [35S]GTPγS binding (human MOR [23]): full agonist with high G protein coupling potency
Potency increase compared to DAMGO, G protein activation (human MOR [23]): four-fold increase in potency compared to DAMGO
Emax (human MOR [23]; read-out: Emax, [35S]GTPγS binding): 92 ± 9%

CN1CC[C@]23c4c5ccc(O)c4O[C@H]2[C@@H](O)C=C[C@H]3[C@H]1C5 [morphine]
ED50, writhing assay (mass) (mice [24]): 0.437 mg/kg
ED50, writhing assay (molar) (mice [24]): 1.36 µmol/kg
Spontaneous locomotor activity of morphine (mice [25]): significant hyperlocomotion from day 1 to day 4
Sedation and locomotor activity [26]: known to produce sedation and to reduce locomotor activity
Rewarding effect of morphine, CPP (mice [27]; 15.5 µmol/kg daily, vs saline): significant place preference compared to the saline group
CPP with narcotic drugs (mice [27]; mice): produce CPP

COc1ccc2c3c1O[C@H]1C(=O)CC[C@@]4(O)[C@@H](C2)N(C)CC[C@]314 [oxycodone]
Sedation and locomotor activity [26]: known to produce sedation and to reduce locomotor activity

KGFF09 (H-Dmt-DArg-Aba-βAla-Bpa-Phe-NH2) (peptide)
[35S]GTPγS binding (G protein activation), membranes from CHO-hMOR cells: EC50 [28]: 8.28 nM
[35S]GTPγS binding (G protein activation), membranes from CHO-hMOR cells: Emax (% of DAMGO) [28]: 92%

[D-Ala2,N-Me-Phe4,Gly-ol5]enkephalin (DAMGO) (peptide)
[35S]GTPγS binding (G protein activation), membranes from CHO-hMOR cells: EC50 [28]: 35 nM
[35S]GTPγS binding (G protein activation), membranes from CHO-hMOR cells: Emax (%, the reference set to 100) [28]: 100%
